The values below come from patent publication US4562190A, “Benzothiazolone derivatives, processes for preparation thereof and pharmaceutical compositions comprising the same” (Fujisawa Pharmaceutical Co., Ltd., priority 1983, dated 1985).

Read-outs that look alike come from different tables or passages of the source.

For one assay, the system named is blood pressure. In words: Antihypertensive activity (DOCA-treated, uninephrectomized rats, oral). The settings on record: dose 1.0 mg/kg, DOCA/saline uninephrectomized rats, mean blood pressure 150-200 mmHg. The format is in vivo, male Wistar rats. The protocol: Five-week old male Wistar rats were uninephrectomized under anesthesia. Deoxycorticosterone acetate (DOCA) (30 mg/kg), suspended in peanut oil, was injected subcutaneously twice a week and 1% saline was substituted for the drinking water. Animals with mean blood pressure 150-200 mmHg were used for experiment between 5 and 7 weeks after surgery.
The test compound was administered orally. Blood pressure was measured at the femoral artery by means of a pressure transducer and recorded as electrically integrated values of mean arterial pressure.

Assay [1] relates to left ventricular pressure (dp/dt max) and heart rate. In words: Cardiotonic activity (anesthetized dogs, i.v.). It is filed as in vivo, Mongrel dogs. The settings on record: dosage 1 mg/kg (printed "1."), injected into femoral vein; pentobarbital-anesthetized dogs; vs predosing period. The procedure: Mongrel dogs of either sex were anesthetized with sodium pentobarbital, 35 mg/kg, i.p.. The animals were allowed to breathe spontaneously. The left carotid artery was isolated and a catheter (USCI, #8F) filled with heparinized saline was inserted and advanced into the left ventricle. The catheter was connected to a pressure transducer (Nihonkohden, MPU-0.5A) to measure the left ventricular pressure, from which dp/dt max was derived by analog computing. To measure the systemic blood pressure the left femoral artery was cannulated. The blood pressure pulses was used to trigger a heart rate meter. Another catheter was positioned in the vena cave through right femoral vein for injection of drug. Systemic blood pressure, left ventricular pressure, dp/dt max and heart rate were recorded simultaneously on a polygram (Nihonkohden, RJG-4008).
Test compound was dissolved in dimethyl sulfoxide (0.04 ml/kg) and injected into the femoral vein. The parameters after dosing were compared with those during the predosing period.
Test results were represented in terms of percentage of dp/dt max changes (dp/dt M.C.) and percentage of heart rate changes (H.R.C.) calculated by following formulae. [formula]

Another assay relates to platelet aggregation. In words: Inhibitory activity on platelet aggregation. It is filed as cell-based. To be noted: Oryctolagus cuniculus, rabbit platelet rich plasma, 37° C. The protocol:
Platelet rich plasma (PRP) which contains 6.5-7.5×10^8 platelet/ml was prepared from rabbit blood. To the 200 μl of PRP, 5 μl of calcium chloride (1mM) and 50 μl of pH 7.4 Tris-acetate solution (5 mM) containing 120mM NaCl and test compound was added successively, and then stirred for 2 min. at 37° C. To the solution 5 μl of adenosine diphosphate (ADP) (2.5 μM) or collagen (2.5 μg/ml) was added as an aggregation inducer. Aggregation was measured by using an aggregometer (NKK HEMA TRACER 1).

For `CC1CC(=O)NN=C1c1ccc2sc(=O)n(C)c2c1` (centres unmarked) [test compound .circle.1, 3-Methyl-5-(4-methyl-6-oxo-1,4,5,6-tetrahydro-3-pyridazinyl)benzothiazolone], the “Effect Max (mean ratio of maximum decrease of blood pressure)” value in the assay with blood pressure is given as 63%. `CCOC(=O)Cn1c(=O)sc2ccc(C3=NNC(=O)CC3C)cc21` (centres unmarked) [test compound .circle.2, 3-Ethoxycarbonylmethyl-5-(4-methyl-6-oxo-1,4,5,6-tetrahydro-3-pyridazinyl)benzothiazolone]: in assay [1], the “H.R.C. (percentage of heart rate changes)” value was 22% and the “dp/dt M.C. (percentage of dp/dt max changes)” value was 63%. On to `CC1CC(=O)NN=C1c1ccc2sc(=O)[nH]c2c1` (centres unmarked) [test compound .circle.3, 5-(4-Methyl-6-oxo-1,4,5,6-tetrahydro-3-pyridazinyl)benzothiazolone], for which the IC50 in the assay on platelet aggregation (inducer ADP (2.5 μM), read-out: ID50, ADP) is 61 nM; in the assay on platelet aggregation (inducer collagen (2.5 μg/ml), read-out: ID50, Collagen), 35 nM.
